These results are taken from patent US12685312B2, “Sulfonamide apyrase inhibitors” (Texas Crop Science, Inc., priority 2022, dated 2026).

This assay concerns apyrase. Briefly: Screen for apyrase inhibitors (Method 1, in vitro phosphate-release absorbance assay). The settings on record: inhibitor conc at 1 mM stock, 1 hr room temperature, absorbance 630 nm; rounded average of two assay results. The class given is biochemical. The gist of the method:
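Phosphate-release colorimetric assay (Windsor method) in 60 mM Hepes, 3 mM MgCl2, 3 mM CaCl2, 3 mM ATP, pH 6.5, with compound or DMSO control added. Released phosphate developed with ammonium molybdate and ascorbic acid/TCA, then stopped with citrate/acetic acid.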
In the case of `COc1ccccc1NS(=O)(=O)c1ccc(C(=O)Nc2ccc(F)c([N+](=O)[O-])c2)cc1` [I-414, N-(4-fluoro-3-nitrophenyl)-4-(N-(2-methoxyphenyl)sulfamoyl)benzamide], the “% Inhibition of Apyrase” value was 15%.

For the compound `COc1ccccc1NC(=O)c1ccc(S(=O)(=O)N(C)c2ccccc2OC)cc1` [I-880, N-(2-methoxyphenyl)-4-(N-(2-methoxyphenyl)-N-methylsulfamoyl)benzamide], the “% Inhibition of Apyrase” value turned out to be 53%. With `COc1ccc(NC(=O)c2ccc(NS(=O)(=O)c3ccc4c(c3)OCCO4)cc2)cc1` [I-941, 4-((2,3-dihydrobenzo[b][1,4]dioxine)-6-sulfonamido)-N-(4-methoxyphenyl)benzamide] the figure was 50%; with `COc1ccccc1NS(=O)(=O)c1cccc(C(=O)Nc2cccc(C(F)(F)F)c2)c1` [I-266, 3-(N-(2-methoxyphenyl)sulfamoyl)-N-(3-(trifluoromethyl)phenyl)benzamide], 58%. In the case of `O=C(c1ccc(S(=O)(=O)Nc2ccc(Cl)cc2)cc1)N1CCc2ccccc21` [I-208, N-(4-chlorophenyl)-4-(indoline-1-carbonyl)benzenesulfonamide], the “% Inhibition of Apyrase” value came to 66%. On to `CSc1cccc(NC(=O)c2ccc(C(=O)Nc3cccc(SC)c3)cc2)c1` [I-861, N1,N4-bis(3-(methylthio)phenyl)terephthalamide], for which the “% Inhibition of Apyrase” value is on record as 68%. As for `O=C(Nc1ccc(OC(F)(F)F)cc1)c1cccc(S(=O)(=O)Nc2ccc3c(c2)OCO3)c1` [I-200, 3-(N-(benzo[d][1,3]dioxol-5-yl)sulfamoyl)-N-(4-(trifluoromethoxy)phenyl)benzamide], the figure is 78%. For the compound `CCOc1ccccc1NC(=O)c1ccc(Cl)c(S(=O)(=O)N2CCc3ccccc32)c1` [I-434, 4-chloro-N-(2-ethoxyphenyl)-3-(indolin-1-ylsulfonyl)benzamide], the “% Inhibition of Apyrase” value stood at 65%.

With `Cc1cccc(NC(=O)c2cc(S(=O)(=O)Nc3cccc(C)c3)ccc2Cl)c1` [I-518, 2-chloro-N-(m-tolyl)-5-(N-(m-tolyl)sulfamoyl)benzamide], the “% Inhibition of Apyrase” value was found to be 56%. Regarding `O=C(Nc1cccc(Cl)c1)c1cccc(S(=O)(=O)N2CCc3ccccc32)c1` [I-515, N-(3-chlorophenyl)-3-(indolin-1-ylsulfonyl)benzamide], the “% Inhibition of Apyrase” value is given as 56%. For `O=C(c1cc(S(=O)(=O)Nc2ccc(Cl)cc2)ccc1Cl)N1CCCc2ccccc21` [I-559, 4-chloro-N-(4-chlorophenyl)-3-(1,2,3,4-tetrahydroquinoline-1-carbonyl)benzenesulfonamide], the “% Inhibition of Apyrase” value came out at 52%. With `Cc1ccc(NC(=O)c2ccc(NS(=O)(=O)c3ccc(F)cc3)cc2)c(C)c1` [I-951, N-(2,4-dimethylphenyl)-4-((4-fluorophenyl)sulfonamido)benzamide] the figure was 38%. With `CCOc1ncccc1C(=O)Nc1cccc(S(=O)(=O)Nc2ccccc2OC)c1` [I-757, 2-ethoxy-N-(3-(N-(2-methoxyphenyl)sulfamoyl)phenyl) nicotinamide] the figure was 29%; with `O=C(Nc1ccc2c(c1)OCO2)c1ccc(NS(=O)(=O)c2ccc(F)cc2)cc1` [I-939, N-(benzo[d][1,3]dioxol-5-yl)-4-((4-fluorophenyl)sulfonamido)benzamide], 50%; with `Cc1cccc(NC(=O)c2ccc(NS(=O)(=O)c3ccc(F)c(Cl)c3)cc2)c1` [I-905, 4-((3-chloro-4-fluorophenyl)sulfonamido)-N-(m-tolyl)benzamide], 61%. For `Cc1ccnn1-c1ccc(C(=O)Nc2ccc(NS(=O)(=O)c3ccc4c(c3)OCCO4)cc2)cc1` [I-1003, N-(4-((2,3-dihydrobenzo[b][1,4]dioxine)-6-sulfonamido)phenyl)-4-(5-methyl-1H-pyrazol-1-yl)benzamide], the “% Inhibition of Apyrase” value worked out at 47%. For `O=C(Nc1ccc2c(c1)OCCO2)c1cccc(S(=O)(=O)N2CCc3ccccc32)c1` [I-523, N-(2,3-dihydrobenzo[b][1,4]dioxin-6-yl)-3-(indolin-1-ylsulfonyl)benzamide], the “% Inhibition of Apyrase” value is on record as 55%.

In the case of `CC(=O)c1cc2c(cc1NC(=O)c1ccc(S(=O)(=O)N3CCCc4ccccc43)cc1)OCO2` [I-881, N-(6-acetylbenzo[d][1,3]dioxol-5-yl)-4-((3,4-dihydroquinolin-1(2H)-yl)sulfonyl)benzamide], the “% Inhibition of Apyrase” value is 53%. With `Cn1cc(C(=O)Nc2cccc(S(=O)(=O)Nc3ccc(Br)cc3)c2)cn1` [I-335, N-(3-(N-(4-bromophenyl)sulfamoyl)phenyl)-1-methyl-1H-pyrazole-4-carboxamide] the figure was 30%. With `O=C(Nc1ccccc1Cl)c1cccc(NS(=O)(=O)c2cccs2)c1` [I-665, N-(2-chlorophenyl)-3-(thiophene-2-sulfonamido)benzamide] the figure was 22%; with `COc1ccc(S(=O)(=O)N2CCc3ccccc32)cc1C(=O)Nc1ccc(OC(F)(F)F)cc1` [I-597, 5-(indolin-1-ylsulfonyl)-2-methoxy-N-(4-(trifluoromethoxy)phenyl)benzamide], 35%; with `COc1ccc(NS(=O)(=O)c2cc(OC)ccc2NC(=O)c2c(OC)cccc2OC)cc1` [I-827, 2,6-dimethoxy-N-(4-methoxy-2-(N-(4-methoxyphenyl)sulfamoyl)phenyl)benzamide], 39%. With `Cc1ccccc1NS(=O)(=O)c1cccc(C(=O)Nc2cccc([N+](=O)[O-])c2)c1` [I-40, N-(3-nitrophenyl)-3-(N-(o-tolyl)sulfamoyl)benzamide] the figure was 14%. With `O=C(Nc1cc(Cl)ccc1NS(=O)(=O)c1ccccc1F)c1ccc2c(c1)OCO2` [I-813, N-(5-chloro-2-((2-fluorophenyl)sulfonamido)phenyl)benzo[d][1,3] dioxole-5-carboxamide], the “% Inhibition of Apyrase” value came to 44%. With `Cc1ccc(NS(=O)(=O)c2ccc(C(=O)Nc3ccc(Cl)cc3C)cc2)cc1` [I-396, N-(4-chloro-2-methylphenyl)-4-(N-(p-tolyl)sulfamoyl)benzamide] the figure was 50%.

Consider `COc1cccc(NC(=O)c2ccc(Cl)c(S(=O)(=O)N3CCc4ccccc43)c2)c1` [I-500, 4-chloro-3-(indolin-1-ylsulfonyl)-N-(3-methoxyphenyl)benzamide], for which the “% Inhibition of Apyrase” value amounted to 57%. As for `O=C(c1cccc(S(=O)(=O)Nc2ccc(F)cc2)c1)N1CCc2ccccc21` [I-576, N-(4-fluorophenyl)-3-(indoline-1-carbonyl)benzenesulfonamide], the figure is 49%. As to `N#Cc1cccc(NC(=O)c2ccc(S(=O)(=O)Nc3ccccc3Cl)cc2)c1` [I-202, 4-(N-(2-chlorophenyl)sulfamoyl)-N-(3-cyanophenyl)benzamide], the “% Inhibition of Apyrase” value is on record as 78%. As for `O=C(Nc1ccc(-n2cnnn2)cc1)c1cccc(S(=O)(=O)N2CCc3ccccc32)c1` [I-535, N-(4-(1H-tetrazol-1-yl)phenyl)-3-(indolin-1-ylsulfonyl)benzamide], the figure is 54%; as for `CN(C1CCCCC1)S(=O)(=O)c1ccccc1NC(=O)c1c(F)cccc1F` [I-824, N-(2-(N-cyclohexyl-N-methylsulfamoyl)phenyl)-2,6-difluorobenzamide], 52%; as for `CCCOc1ccc(C(=O)Nc2cccc(NS(=O)(=O)c3ccc(C)c(C)c3)c2)cc1OC` [I-348, N-(3-((3,4-dimethylphenyl)sulfonamido)phenyl)-3-methoxy-4-propoxybenzamide], 48%. With `COc1ccc(C(=O)Nc2cccc(S(=O)(=O)Nc3nccs3)c2)cc1[N+](=O)[O-]` [I-760, 4-methoxy-3-nitro-N-(3-(N-(thiazol-2-yl)sulfamoyl)phenyl)benzamide] the figure was 26%; with `COc1ccc(C(CNC(=O)c2cccc(S(=O)(=O)Nc3ccc(Br)cc3)c2)N(C)C)cc1` (stereo not shown) [I-279, 3-(N-(4-bromophenyl)sulfamoyl)-N-(2-(dimethylamino)-2-(4-methoxyphenyl)ethyl)benzamide], 42%; with `COC(=O)C1(c2ccc(Br)cc2)CCN(C(=O)c2cccc(S(=O)(=O)Nc3ccc(Br)cc3)c2)C1` (stereo not shown) [I-269, methyl 3-(4-bromophenyl)-1-(3-(N-(4-bromophenyl)sulfamoyl)benzoyl)pyrrolidine-3-carboxylate], 57%. Take `Cc1ccc(NS(=O)(=O)c2ccc(NC(=O)c3cccc(S(C)(=O)=O)c3)cc2)cc1C` [I-989, N-(4-(N-(3,4-dimethylphenyl)sulfamoyl)phenyl)-3-(methylsulfonyl)benzamide]: the “% Inhibition of Apyrase” value was 54%.

As for `CCOC(=O)c1c(NC(=O)c2cccc(S(=O)(=O)Nc3ccc(Cl)cc3)c2)sc2c1CCCC2` [I-506, ethyl 2-(3-(N-(4-chlorophenyl)sulfamoyl)benzamido)-4,5,6,7-tetrahydrobenzo[b]thiophene-3-carboxylate], the “% Inhibition of Apyrase” value was found to be 57%. With `Cc1ccc(NS(=O)(=O)c2ccc(C(=O)Nc3ccc(C)c(C)c3)cc2)cc1` [I-888, N-(3,4-dimethylphenyl)-4-(N-(p-tolyl)sulfamoyl)benzamide], the “% Inhibition of Apyrase” value amounted to 43%. As to `Cc1ccc(F)c(NC(=O)c2ccc(NS(=O)(=O)c3ccccc3)cc2)c1` [I-955, N-(2-fluoro-5-methylphenyl)-4-(phenylsulfonamido)benzamide], the “% Inhibition of Apyrase” value was determined as 23%. As for `CC1CCc2c(sc(NC(=O)c3cccc(S(=O)(=O)Nc4ccc(Br)cc4)c3)c2C#N)C1` (stereo not shown) [I-9, 3-(N-(4-bromophenyl)sulfamoyl)-N-(3-cyano-6-methyl-4,5,6,7-tetrahydrobenzo[b]thiophen-2-yl)benzamide], the figure is 61%; as for `O=C(Nc1cccc(Cl)c1)c1cccc(S(=O)(=O)Nc2ccc3c(c2)OCO3)c1` [I-197, 3-(N-(benzo[d][1,3]dioxol-5-yl)sulfamoyl)-N-(3-chlorophenyl)benzamide], 70%.
